# Reference: ChEMBL document CHEMBL1141272, “Eujavanicols A-C, decalin derivatives from Eupenicillium javanicum” (J Nat Prod, 2007)
# Activity calls are given as the source filed them. The calls are words filed in the database; no cut-off is given here.
# Tested on: Aspergillus fumigatus
# Test: Antifungal activity against Aspergillus fumigatus
# Type: functional, organism-based
row,Structure (SMILES),Activity
1,CC[C@@H](C)C1=CC(=O)[C@H]2[C@H](O)[C@H](O)C[C@@H](C)[C@@H]2[C@@]1(C)C(=O)CCO,inactive
2,CC[C@@H](C)[C@H]1C=C[C@H]2[C@H](O)[C@@H](O)C[C@@H](C)[C@@H]2[C@@]1(C)C(=O)CCO,inactive
3,CC[C@@H](C)[C@H]1C=C[C@H]2[C@H](O)[C@H](O)C[C@@H](C)[C@@H]2[C@@]1(C)C(=O)CCO,inactive
